Data set [1] is described as follows: Clinical trial in KCS patients: adverse events and toxicity. The data set is classed as in vivo, human. The following applies: following one month of therapy. As to the method: (§1) A randomized, double-masked, placebo-controlled, multicenter, pilot study was conducted in compliance with ICH Good Clinical Practice and the Declaration of Helsinki. Approval was obtained from an Institutional Review Board for each study site before initiating the study. Written informed consent was obtained from all patients before any study specific investigations were performed.
(§2) Patients were randomly assigned to receive either Lotemax® Bausch and Lomb Inc. Rochester N.Y., or placebo four times a day. Lotemax® (loteprednol etabonate ophthalmic suspension, 0.5%) was supplied in 7.5 mL (5.0 mL fill) white, low density polyethylene dropper bottles with white caps for masking purposes. Placebo (the vehicle of Lotemax®) was supplied in identical bottles. Preservative Free Moisture Eyes™ Lubricant Eye Drops (Bausch & Lomb) were supplied in unit dose containers.
(§3) Safety was assessed by fundoscopy, lens examination and biomicroscopy, by tests of visual acuity and intraocular pressure, and by monitoring adverse events and changes in symptomatology. Adverse events were evaluated by the investigator as to severity (mild, moderate, severe) and relationship of the event to the study drug (probable, possible, unlikely, or unknown).

The conditions of data set [2]: 0.2%; up to 3 years; 265 patients; allergic conjunctivitis; cited from earlier work.
Data set [3] is described as follows: Clinical trial in KCS patients: intraocular pressure. The data set is classed as in vivo, human. The following applies: one month of therapy; mean IOP and individual patients. As to the method:
as §1, §2, §3

The subject of data set [4] is keratoconjunctivitis sicca (KCS) in patients with delayed tear clearance. In words: Clinical trial in KCS patients: corneal fluorescein staining score. The data set is classed as in vivo, human. Particulars: subset with more severe clinical inflammatory signs at entry. As to the method: as §1
In addition, they were required to meet the following criteria in at least one eye: • 1. delayed tear clearance defined by a standardized visual scale score ≧3^15 • 2. at least one symptom >30 mm on the visual analog scale (VAS) • 3. composite corneal staining score >3
Patients were randomly assigned to receive either Lotemax® Bausch and Lomb Inc. Rochester N.Y., or placebo four times a day. […]
Patients attended for 5 visits. […] The fluorescence was graded between 0 and 6 using a standard color comparison scale. […] The corneal staining was evaluated 5 minutes after the instillation of the 2% fluorescein, viewing the cornea through a slit lamp with blue light and a No. 11 Wratten filter (See Table 2 below).
As is traditional for studies of this kind, two primary variables were defined representing subjective evaluation by the patient and objective evaluation based on the clinical examination findings. […] Each area was scored according to the corneal staining grading scale (Table 2 above). […]

For `CCOC(=O)O[C@]1(C(=O)OCCl)CC[C@H]2[C@@H]3CCC4=CC(=O)C=C[C@]4(C)[C@H]3[C@@H](O)C[C@@]21C` [loteprednol, (11β,17α),-17-[(Ethoxycarbonyl)oxy]-11-hydroxy-3-oxoandrosta-1,4-diene-17-carboxylic acid chloromethyl ester], in data set [1], the Toxicity entry is “complete lack of toxicity”. Moreover, in data set [2], the Cataract formation entry is reported as “no cataract formation was observed” and the “Mean intraocular pressure compared to pretreatment values” is reported as “not different from baseline”. In addition, the “Elevation of IOP” value in data set [3] was “neither elevation of the mean IOP nor any individual with a clinically important elevation of the IOP”. Moreover, the “Central corneal fluorescein staining, improvement” value in data set [4] (four weeks) is listed as about 20%. The “Central corneal fluorescein staining, improvement” value in data set [4] (two weeks) is recorded as “approximately 30%”.

The record behind these values is patent publication US20050222110A1, “Use of loteprednol etabonate for the treatment of dry eye” (priority 2004, published 2005).
